Reference: ChEMBL document CHEMBL1201862, “PubChem BioAssay data set” (2004)
Active and inactive are the calls of the source.

Columns and labels:
[1] = viability of HCT116 lacking mutant beta-catenin – cell-based, human colon tumor, dose response (AID 1045); type: functional;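 also: HCT116 colon tumor cells with beta catenin knocked out; cells exposed to compound for 60 hours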
[2] = viability of PTEN-deleted HCT116 cells – cell-based, HCT116 PTEN knockout, dose response (AID 1047); type: functional;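 also: HCT116 colon tumor cells with PTEN knocked out; cells exposed to compound for 60 hours before readout; potency for loss of cell viability measured by luminescence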
[3] = test system: Vero; assay: mammalian cell viability reduction – secondary assay, cytotoxicity control for West Nile virus antiviral project, dose response (AID 1650); type: functional; settings: Chlorocebus sabaeus
[4] = molecular target: Cytochrome P450 2C19 (Homo sapiens, UniProt P33261); assay: qHTS Assay for Inhibitors and Substrates of Cytochrome P450 2C19. [Related pubchem assays: 410 ]; type: ADME; settings: read-out: Potency
Chain of Cytochrome P450 2C19 (P33261 whole entry): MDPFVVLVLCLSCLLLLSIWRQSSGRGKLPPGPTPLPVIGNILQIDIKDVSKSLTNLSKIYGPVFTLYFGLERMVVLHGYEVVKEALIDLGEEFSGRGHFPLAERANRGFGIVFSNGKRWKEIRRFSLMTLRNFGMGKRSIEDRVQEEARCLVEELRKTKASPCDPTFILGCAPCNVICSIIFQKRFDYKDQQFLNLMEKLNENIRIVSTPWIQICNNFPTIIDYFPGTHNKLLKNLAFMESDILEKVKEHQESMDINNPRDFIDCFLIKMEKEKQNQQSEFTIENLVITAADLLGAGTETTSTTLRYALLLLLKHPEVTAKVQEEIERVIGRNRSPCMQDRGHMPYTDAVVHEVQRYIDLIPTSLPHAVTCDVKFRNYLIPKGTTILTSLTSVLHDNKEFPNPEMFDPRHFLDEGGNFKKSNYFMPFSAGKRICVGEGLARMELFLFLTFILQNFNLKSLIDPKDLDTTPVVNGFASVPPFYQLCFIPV

[5] = test system: HEK293; assay: cells; settings: Homo sapiens
[6] = molecular target: Sphingosine 1-phosphate receptor 4 (Homo sapiens, UniProt O95977); assay: Fluorescence dose response cell-based high throughput screening assay for antagonists of the Sphingosine 1-Phosphate Receptor 4 (S1P4). [Related pubchem assays: 1524 (Confirmation in triplicates.), 1510 (Primary screen.)]; type: functional
Chain of Sphingosine 1-phosphate receptor 4 (O95977 whole entry, the tested form may be a part): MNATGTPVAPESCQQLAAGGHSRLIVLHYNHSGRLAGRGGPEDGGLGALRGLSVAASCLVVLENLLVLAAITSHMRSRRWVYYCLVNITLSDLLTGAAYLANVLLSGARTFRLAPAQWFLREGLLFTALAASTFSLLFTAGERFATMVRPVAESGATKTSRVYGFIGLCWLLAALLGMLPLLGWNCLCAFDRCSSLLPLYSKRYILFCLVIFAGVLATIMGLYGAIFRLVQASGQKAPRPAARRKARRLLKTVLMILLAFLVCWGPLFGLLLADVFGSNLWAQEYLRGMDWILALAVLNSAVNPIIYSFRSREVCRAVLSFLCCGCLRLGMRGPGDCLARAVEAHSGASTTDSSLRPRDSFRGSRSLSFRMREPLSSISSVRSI

[7] = Fluorescence-based cell-based high throughput dose response assay for inhibitors of the interaction of nucleotide-binding oligomerization domain containing 2 (NOD2) and the receptor-interacting serine-threonine kinase 2 (RIPK2).; type: functional; settings: Homo sapiens
[8] = molecular target: Paired box protein Pax-8 (Homo sapiens, UniProt Q06710); assay: PAX8 transcriptional activity inhibition in RMG-I – RMG-I cells, luciferase, cherry-pick, dose response (AID 687027); type: functional, cell-based;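 also: luciferase reporter driven by Pax8 target thyroperoxidase promoter measured by SteadyGlo luminescence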
Chain of Paired box protein Pax-8 (Q06710 whole entry): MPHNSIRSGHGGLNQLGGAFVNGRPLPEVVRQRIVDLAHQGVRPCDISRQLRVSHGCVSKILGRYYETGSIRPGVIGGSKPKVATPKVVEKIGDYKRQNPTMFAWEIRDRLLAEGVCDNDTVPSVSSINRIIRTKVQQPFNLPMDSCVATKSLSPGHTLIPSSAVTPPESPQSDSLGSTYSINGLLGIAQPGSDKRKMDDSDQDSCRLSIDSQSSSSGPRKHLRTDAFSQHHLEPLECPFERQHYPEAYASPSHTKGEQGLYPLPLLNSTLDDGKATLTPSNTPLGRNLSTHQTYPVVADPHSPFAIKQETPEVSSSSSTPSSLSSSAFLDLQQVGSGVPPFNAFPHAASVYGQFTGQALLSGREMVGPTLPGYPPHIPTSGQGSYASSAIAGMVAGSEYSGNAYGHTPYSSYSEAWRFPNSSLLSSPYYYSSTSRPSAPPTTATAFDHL

[9] = MIN6 cell viability loss – mouse insulinoma, cytotoxicity control, dose response (AID 2122); type: functional;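 also: confirmatory high-throughput counterscreen run to flag cytotoxic compounds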
[10] = decrease of insulin promoter-GFP reporter – imaging, high-content screening, mouse beta cells (AID 1628); type: functional; settings: MIN6
[11] = molecular target: T1, Heat shock factor protein 1 (Mus musculus, UniProt P38532); assay: enhancement of HSF1-driven luciferase signal – cell-based, NIH3T3, luminescence, dose retest, confirmation (AID 435004); type: functional;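 also: stress induced by proteasome inhibitor MG132 added 30 min after compound; luciferase reporter driven by HSF1 response element in NIH3T3 cells; actives raise luminescence as potentiators of the MG132 stress response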
T1 sequence (P38532 whole entry): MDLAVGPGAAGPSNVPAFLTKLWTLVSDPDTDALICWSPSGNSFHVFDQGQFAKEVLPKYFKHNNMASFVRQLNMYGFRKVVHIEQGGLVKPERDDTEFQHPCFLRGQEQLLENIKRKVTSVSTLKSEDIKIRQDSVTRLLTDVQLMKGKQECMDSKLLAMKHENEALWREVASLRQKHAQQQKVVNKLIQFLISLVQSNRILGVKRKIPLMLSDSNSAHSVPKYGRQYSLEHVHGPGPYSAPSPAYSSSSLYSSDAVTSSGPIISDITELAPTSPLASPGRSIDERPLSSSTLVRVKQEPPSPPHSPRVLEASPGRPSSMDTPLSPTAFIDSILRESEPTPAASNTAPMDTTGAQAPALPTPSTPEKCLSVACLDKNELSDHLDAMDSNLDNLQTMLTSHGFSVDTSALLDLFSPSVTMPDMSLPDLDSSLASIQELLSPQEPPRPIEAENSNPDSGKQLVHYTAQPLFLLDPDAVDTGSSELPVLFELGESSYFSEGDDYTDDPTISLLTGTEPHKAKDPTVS

[12] = Luminescence Cell-Based Dose Retest to Confirm Inhibitors of Cancer Stem Cells. [Related pubchem assays (depositor defined):AID2717, AID2721]; type: functional; settings: Homo sapiens
[13] = test system: HEK293; assay: cells; settings: Homo sapiens; remark: listed apart in the source
[14] = molecular target: Galanin receptor type 2 (Homo sapiens, UniProt O43603); assay: Dose Response cell-based high-throughput screening assay to identify antagonists of galanin receptor 2 (GALR2). [Related pubchem assays: 828, 866 ]; type: functional
Chain of Galanin receptor type 2 (O43603 whole entry): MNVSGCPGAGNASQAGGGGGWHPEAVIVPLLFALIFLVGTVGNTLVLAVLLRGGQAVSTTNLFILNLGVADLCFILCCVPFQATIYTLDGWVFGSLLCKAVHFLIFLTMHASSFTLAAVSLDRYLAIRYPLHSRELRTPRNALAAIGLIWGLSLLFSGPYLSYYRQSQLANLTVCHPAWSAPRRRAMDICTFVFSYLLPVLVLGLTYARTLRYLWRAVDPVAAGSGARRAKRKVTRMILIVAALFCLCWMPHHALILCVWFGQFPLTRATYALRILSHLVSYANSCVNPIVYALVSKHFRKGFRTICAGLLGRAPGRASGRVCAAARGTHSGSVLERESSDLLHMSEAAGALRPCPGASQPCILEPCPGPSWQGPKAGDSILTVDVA

[15] = molecular target: Sphingosine 1-phosphate receptor 1 (Homo sapiens, UniProt P21453); type: functional;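 also: Tango beta-arrestin reporter U2OS cells stimulated with S1P near its EC80; inhibitor potency meaning antagonism of receptor activation by the natural agonist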
Chain of Sphingosine 1-phosphate receptor 1 (P21453 whole entry): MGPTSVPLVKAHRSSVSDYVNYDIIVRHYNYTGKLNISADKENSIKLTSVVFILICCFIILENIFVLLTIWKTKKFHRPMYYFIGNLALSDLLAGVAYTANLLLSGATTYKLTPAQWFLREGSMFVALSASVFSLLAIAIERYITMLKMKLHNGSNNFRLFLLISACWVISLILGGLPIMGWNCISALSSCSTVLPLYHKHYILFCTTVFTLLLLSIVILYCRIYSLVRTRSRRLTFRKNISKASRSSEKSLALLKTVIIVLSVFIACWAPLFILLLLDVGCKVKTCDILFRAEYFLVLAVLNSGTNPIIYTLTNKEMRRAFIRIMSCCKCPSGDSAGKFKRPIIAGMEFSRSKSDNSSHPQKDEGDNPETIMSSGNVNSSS

[16] = reduced cellular PGC1a acetyl-lysine signal – cell-based, cherry-picked samples, dose response (AID 720514); type: functional;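 also: potency may reflect raised or lowered acetylation signal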
[17] = molecular target: Heat shock protein HSP 90-alpha (Homo sapiens, UniProt P07900); type: functional, organism-based
[18] = test system: INS1; assay: INS-1E survival protection against cytokine death – cell-based, luminescence, retest, dose response (AID 449756); type: functional; settings: Rattus norvegicus;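 also: cell death triggered by IL-1 beta plus TNF-alpha plus IFN-gamma mixture; protective hits raise ATP signal compared with cytokine alone wells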
[19] = test system: HeLa; assay: Cytotoxicity counterscreen assay for transcriptional activators of heat shock protein 70 (Hsp70). [Related pubchem assays: 1203, 1252 ]; type: functional; settings: Homo sapiens;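 also: cells exposed to compound for 16 hours before readout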
[20] = molecular target: Genome polyprotein (Hepatitis C virus, UniProt Q2Q167); assay: disruption of hepatitis C core self-association – biochemical, TR-FRET, dose response (AID 2159); set-up: species or system Hepacivirus hominis;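 also: blocks dimerization of HCV core protein measured by TR-FRET between tagged core106 pairs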
Chain of Genome polyprotein (Q2Q167 whole entry): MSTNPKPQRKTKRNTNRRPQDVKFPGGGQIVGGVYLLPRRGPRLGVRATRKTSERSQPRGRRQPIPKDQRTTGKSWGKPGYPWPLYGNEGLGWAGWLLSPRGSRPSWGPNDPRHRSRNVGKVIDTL

[21] = molecular target: T2, Neuropeptides B/W receptor type 1 (Homo sapiens, UniProt P48145); assay: Fluorescence-based dose response cell-based high throughput screening assay to identify antagonists of the G-protein coupled receptor 7 (GPR7). [Related pubchem assays: 1952 (Screening assay (GPR7 antagonists).), 1880 (Summary AID.)]; type: functional
T2 sequence (P48145 whole entry): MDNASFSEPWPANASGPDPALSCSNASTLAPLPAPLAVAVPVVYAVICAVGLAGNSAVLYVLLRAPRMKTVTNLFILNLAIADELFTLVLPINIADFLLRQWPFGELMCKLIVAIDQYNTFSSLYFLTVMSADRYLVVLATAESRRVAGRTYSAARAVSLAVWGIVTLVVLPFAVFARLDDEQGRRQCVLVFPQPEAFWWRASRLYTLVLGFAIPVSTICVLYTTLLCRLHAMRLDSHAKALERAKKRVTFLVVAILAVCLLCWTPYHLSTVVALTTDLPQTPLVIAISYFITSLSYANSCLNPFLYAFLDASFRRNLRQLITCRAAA

[22] = molecular target: Melanin-concentrating hormone receptor 1 (Homo sapiens, UniProt Q99705); assay: Fluorescence-based counterscreen for antagonists of the G-protein coupled receptor 7 (GPR7): cell-based high throughput dose response assay to identify antagonists of the melanin-concentrating hormone receptor 1 (MCHR1).; type: functional
Chain of Melanin-concentrating hormone receptor 1 (Q99705 whole entry): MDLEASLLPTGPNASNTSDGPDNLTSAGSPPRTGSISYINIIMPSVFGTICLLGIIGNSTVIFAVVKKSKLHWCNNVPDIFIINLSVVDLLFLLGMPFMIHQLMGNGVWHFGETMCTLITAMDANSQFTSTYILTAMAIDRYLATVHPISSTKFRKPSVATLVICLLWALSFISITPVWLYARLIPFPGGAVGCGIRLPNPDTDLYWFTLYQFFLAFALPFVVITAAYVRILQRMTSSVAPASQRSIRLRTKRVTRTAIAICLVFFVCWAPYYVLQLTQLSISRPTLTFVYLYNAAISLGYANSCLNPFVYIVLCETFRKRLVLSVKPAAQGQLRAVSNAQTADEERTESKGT

[23] = Luminescence Cell-Based Dose Response HTS to Identify Inhibitors of 5'UTR Stem-Loop Driven Prion Protein mRNA Translation in H4 Neuroglioblastoma Cells. [Related pubchem assays: 1827 (Project Summary), 1813 (Primary HTS)]; type: functional
[24] = luciferase reporter signal suppression in cells – H4 neuroglioma cells, luminescence, dose response (AID 1990); type: functional, cell-based
[25] = alpha-synuclein stem-loop luciferase translation blockers – H4 neuroglioma cells, luminescence, confirmation (AID 1988); type: functional, cell-based
[26] = Luminescence-based dose response cell-based high throughput screening assay for cytotoxic compounds using the IEC-6 intestinal epithelial cell line. [Related pubchem assays: 1858 (Summary AID.), 1825 (Counterscreen.), 1907 (Confirmation screen.)]; type: functional

For `C=CCn1c(SCC(=O)c2[nH]c(C)c(C(=O)OCC)c2C)nc2scc(-c3ccccc3)c2c1=O`, the EC50 [1] was 3.85 µM (active), the EC50 [2] was 5.36 µM (active) and the CC50 [3] was > 100 µM (active).
In the case of `OCC1OC(c2ccccc2)C=CC1Oc1cc(Cl)cc(Cl)c1` (stereo unspecified), the AC50 [4] is reported as 1.26 µM (inconclusive).
For `O=C(Cn1ncc(Cl)c(Cl)c1=O)N1CCN(S(=O)(=O)c2ccc3ccccc3c2)CC1`, the EC50 [5] was > 59.6 µM (inactive), the IC50 [6] was 1.52 µM (active) and the IC50 [7] was 1.77 µM (active). For the same compound, the AC50 [8] was 2.51 µM (active), the IC50 [9] was 1.19 µM (active) and the IC50 [10] was 1.34 µM (active). For the same compound, the EC50 [11] was 3.7 µM (active), the AC50 [12] was 3.25 µM (active) and the EC50 [13] was > 59.6 µM (inactive). For the same compound, the IC50 [14] was 5.37 µM (active), the IC50 [15] was 8.59 µM (active) and the AC50 [16] was 4.24 µM (active).
For `CC(C)(C)C1C/C(=C/c2ccccn2)C(=O)/C(=C/c2ccccn2)C1` (stereo unspecified), the AC50 [17] was 7.8 µM (active), the AC50 [18] was 0.579 µM (active) and the CC50 [19] was > 1.22 µM (not active).
For `CCc1nnc(NCC(=O)N2CCc3ccccc32)s1`, the IC50 [20] was > 49.8 µM (not active).
In the case of `COc1ccc(S(=O)(=O)N(CC(=O)Nc2ccc(S(=O)(=O)N3CCOCC3)cc2)Cc2ccc(F)cc2)cc1`, the IC50 [21] is reported as > 43.8 µM (not active) and the IC50 [22] is reported as > 43.8 µM (not active).
For `CC(C)NCC(O)Cn1c2c(c3ccccc31)CCc1c-2cnn1-c1ccccc1` (stereo unspecified), the EC50 [23] was 10.7 µM (active), the EC50 [24] was 8.19 µM (active) and the EC50 [25] was 6.18 µM (active). For the same compound, the IC50 [26] was 3.51 µM (active).
